From US20250388605A1, “HETEROBIFUNCTIONAL COMPOUNDS AND METHODS OF TREATING DISEASE” (Halda Therapeutics OpCo, Inc., priority 2022, published 2025) come the findings set out here.

As a reminder, the GI50 is the concentration at which growth is held to half of that of the control. The low end stands for more potent growth inhibition, the high end for less potent growth inhibition. One may read the Ki as the equilibrium dissociation constant of an inhibitor or competing ligand from its target.

Test [1] relates to T-Rex 293 cell line SC3 cells lacking increased expression of androgen receptor protein. The experiment in a line: Cellular growth inhibition, T-Rex 293 SC3 cells without doxycycline (no increased androgen receptor expression), CellTiter-Glo. It is filed as cell-based. Conditions: T-Rex 293 SC3 cells not exposed to doxycycline (no increased androgen receptor expression), 72 hours. The method in brief:
(§1)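 Growth inhibition is measured in an inducible AR-expressing T-Rex 293 clone, SC3, cultured with or without 10 ng/mL doxycycline in hormone-depleted medium. Test compounds are applied for 72 hours. GI50 values derive from CellTiter-Glo 2.0 signal fitted by four-parameter regression.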
For orientation: ATP-based viability assays read luminescence as a measure of living cells.

Test [2] relates to T-Rex 293 cell line SC3 cells having increased expression of androgen receptor protein due to exposure to doxycycline. The experiment in a line: Cellular growth inhibition, T-Rex 293 SC3 cells with doxycycline (increased androgen receptor expression), CellTiter-Glo. Conditions: T-Rex 293 SC3 cells with 10 ng/mL doxycycline (increased androgen receptor expression), 72 hours, CellTiter-Glo 2.0. It counts as cell-based. The method in brief:
as §1

A further test has as its target T1, androgen receptor (Homo sapiens, UniProt P10275).
T1 construct: host or cells: unnamed cells, cytosolic fraction
T1 sequence (P10275 1-920): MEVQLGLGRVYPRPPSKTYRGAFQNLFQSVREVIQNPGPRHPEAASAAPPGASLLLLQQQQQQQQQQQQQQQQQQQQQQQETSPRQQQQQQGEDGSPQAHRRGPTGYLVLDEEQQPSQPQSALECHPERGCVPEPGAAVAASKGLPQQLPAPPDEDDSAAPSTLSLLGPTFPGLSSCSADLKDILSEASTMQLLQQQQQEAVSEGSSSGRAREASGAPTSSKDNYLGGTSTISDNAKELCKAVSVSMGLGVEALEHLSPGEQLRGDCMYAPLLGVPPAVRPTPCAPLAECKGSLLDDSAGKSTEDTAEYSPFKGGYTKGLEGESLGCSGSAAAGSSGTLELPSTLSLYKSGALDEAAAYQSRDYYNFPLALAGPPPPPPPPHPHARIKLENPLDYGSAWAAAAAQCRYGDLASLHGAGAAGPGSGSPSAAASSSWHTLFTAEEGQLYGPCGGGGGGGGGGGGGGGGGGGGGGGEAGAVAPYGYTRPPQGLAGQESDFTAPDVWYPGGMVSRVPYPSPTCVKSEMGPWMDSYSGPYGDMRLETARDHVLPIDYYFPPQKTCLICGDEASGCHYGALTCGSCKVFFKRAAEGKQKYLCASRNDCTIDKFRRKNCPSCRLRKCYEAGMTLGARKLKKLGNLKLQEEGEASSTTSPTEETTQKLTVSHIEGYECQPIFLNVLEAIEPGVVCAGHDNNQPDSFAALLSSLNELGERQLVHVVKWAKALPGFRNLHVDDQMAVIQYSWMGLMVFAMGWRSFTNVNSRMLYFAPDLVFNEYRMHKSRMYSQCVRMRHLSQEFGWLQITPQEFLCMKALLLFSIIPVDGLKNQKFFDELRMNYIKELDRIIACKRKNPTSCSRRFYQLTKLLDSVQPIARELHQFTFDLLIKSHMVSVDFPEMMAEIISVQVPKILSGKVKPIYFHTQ
Kind of test: Assay for binding affinity to androgen receptor ([3H]methyltrienolone radioligand competition, cell cytosol). Conditions: binding to the androgen receptor, 1 nM [3H]methyltrienolone, 24 hr at 4° C. The method, then:
Fractions of cell cytosol ([…]) were incubated for 24 hr at 4° C. with 1 nM [^3H]methyltrienolone in the absence or presence of the test compound in a buffer containing 25 mM Hepes-Tris (pH 7.4), 1 mM EDTA, 10 mM Na2MoO4, 2 mM DTT, 5 μM triamcinolone acetonide, and 10% glycerol. Nonspecific binding was determined in the presence of […] testosterone. Following incubation, the samples were filtered rapidly under vacuum through glass fiber filters (GF/B, Packard) presoaked with 0.3% PEI and rinsed several times with ice-cold 50 mM Tris-HCl using a 96-sample cell harvester (Unifilter, Packard). The filters were dried then counted for radioactivity in a scintillation counter (Topcount, Packard) using a scintillation cocktail (Microscint 0, Packard). The results are expressed as a percent inhibition of the control radioligand specific binding. The standard reference compound is testosterone, which is tested in each experiment at several concentrations to obtain a competition curve from which its IC50 is calculated.
Background: Loss of bound radioactivity is the signal in a displacement assay; it reports binding, not function.

The test system of the next test is VCaP cells. The experiment in a line: Cellular growth inhibition assay for VCaP cells, CellTiter-Glo. It counts as cell-based, human. The settings on record: Homo sapiens, 72 hours. The method in brief:
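GI50 values come from four-parameter curve fits of luminescence data normalized to a zero baseline. Compound, in medium with 0.5% DMSO, was added one day after plating and left for 72 h before CellTiter-Glo 2.0 addition.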

The target of another test is T2, progesterone receptor (Homo sapiens, UniProt P06401).
T2 sequence (P06401 679-933 limits assumed): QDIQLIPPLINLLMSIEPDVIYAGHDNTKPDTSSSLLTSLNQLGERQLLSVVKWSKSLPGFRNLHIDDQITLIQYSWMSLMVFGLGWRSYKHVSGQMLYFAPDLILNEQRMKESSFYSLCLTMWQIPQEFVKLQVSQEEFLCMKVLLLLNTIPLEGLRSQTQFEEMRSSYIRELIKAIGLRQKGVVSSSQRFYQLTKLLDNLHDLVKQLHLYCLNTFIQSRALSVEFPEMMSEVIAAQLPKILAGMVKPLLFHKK
The experiment in a line: PR Human Progesterone NHR Binding (Agonist Radioligand) Assay, [3H]progesterone, T47D cytosolic fractions. Conditions: 0.5 nM [3H]progesterone, 1 hour at 4° C. The procedure: Exemplary compounds were tested for ability to bind to the progesterone receptor.
Compounds were tested using the PR Human Progesterone NHR Binding (Agonist Radioligand) Assay, Cerep at Eurofins Discovery using a modified version of the protocol from Sarup et al. (Cancer Res 1988; 48:5071-5078). Briefly, cytosolic fractions of T47D cells were incubated with 0.5 nM [^3H]progesterone for 1 hour at 4° C. in the absence or presence of the test compound. Nonspecific binding was determined in the presence of […] promegestone. Reactions were subjected to scintillation counting. Results are expressed as a percent inhibition of the control radioligand specific binding.

A further test relates to T47D cells. Kind of test: Cellular Growth Inhibition Assay for T47D Cells (CellTiter-Glo). It counts as cell-based, human. The settings on record: Homo sapiens, 72 hours. The method in brief:
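GI50 values derive from four-parameter regression of CellTiter-Glo 2.0 luminescence, using zero luminescence as baseline. Human breast cancer T47D cells (3000/well; DMEM, 10% FBS, 0.2 units/mL insulin) were exposed for 72 h to compound dilutions at 0.5% DMSO, with dosing starting 24 h after seeding.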

`CCS(=O)(=O)Nc1ccc(Oc2cccc(OCCOC3CCN(c4cnc(C(=O)N[C@H]5C(C)(C)[C@H](Oc6ccc(C#N)c(Cl)c6)C5(C)C)nc4)CC3)c2)c(-c2cn(C)c(=O)c3[nH]ccc23)c1` [Compound I-73, N-((1r, 3r)-3-(3-chloro-4-cyanophenoxy)-2,2,4,4-tetramethylcyclobutyl)-5-(4-(2-(3-(4-(ethylsulfonamido)-2-(6-methyl-7-oxo-6,7-dihydro-1H-pyrrolo[2,3-c]pyridin-4-yl)phenoxy)phenoxy)ethoxy)piperidin-1-yl)pyrimidine-2-carboxamide]: the GI50 (in test [1]; in test [2]; in the test on VCaP cells) was below 500 nM in each case. The compound also yielded a Ki on androgen receptor of 50 to 500 nM.
Turning to `Cn1cc(-c2cc(C(C)(C)O)ccc2Oc2ccc(N3CC(CC4CCN(c5cnc(C(=O)N[C@H]6C(C)(C)[C@H](Oc7ccc(C#N)c(C(F)(F)F)c7)C6(C)C)cn5)CC4)C3)cc2)c2cc[nH]c2c1=O` [Compound I-373], at progesterone receptor, the inhibition constant (Ki) was in the range of 500 to 2500 nM. Moreover, the concentration for 50% growth inhibition (GI50) in the test on T47D cells was below 500 nM.
